Data published in patent publication US10336749B2, “Method for the preparation of (4S)-4-(4-cyano-2-methoxyphenyl)-5-ethoxy-2,8-dimethyl-1,4-dihydro-1-6-naphthyridine-3-carboxamide and the purification thereof for use as an active pharmaceutical ingredient” (BAYER PHARMA AKTIENGESELLSCHAFT, priority 2015, dated 2019).

How the values were obtained:
[1] = Stability and moisture absorption: storage at 85% and 97% rel. humidity, evaluated by DSC, TGA and XRPD; assay type: physicochemical; settings: 25° C.; for mass change: after 12 months
Experimental: Stability and Moisture Absorption Samples of compound of the formula (I) in crystalline form of polymorph I were stored at 85% and 97% rel. humidity (25° C.). The samples were evaluated after 12 months by DSC, TGA and XRPD. After 12 months, a mass change of <0.1% is observed in both cases. […] According to DSC, TGA and XRPD, no difference exists in compound of the formula (I) in crystalline form of polymorph I.

[2] = Storage stability of crystalline polymorph I; assay type: physicochemical
[3] = 85% and 97% rel. humidity, 12 months

absorption of water [1, 3]: no significant absorption of water | difference according to DSC, TGA and XRPD after storage [1, 3]: no difference | mass change ([1]; stored at 85% rel. humidity): < 0.1% | mass change ([1]; stored at 97% rel. humidity): < 0.1% | storage time without any problem ([2]; crystalline form of polymorph I): > 2 years | stability properties ([2]; even at high atmospheric humidity): very good stability properties
Compound: CCOc1ncc(C)c2c1[C@H](c1ccc(C#N)cc1OC)C(C(N)=O)=C(C)N2 [(4S)-4-(4-Cyano-2-methoxyphenyl)-5-ethoxy-2,8-dimethyl-1,4-dihydro-1,6-naphthyridine-3-carboxamide]
